Assay results from patent publication US6655379B2, “Aerosolized active agent delivery” (Nektar Therapeutics, priority 1998, dated 2003).

How the values were obtained:
[1] = in vivo; cited from earlier work
[2] = human, in vivo

Substance	efficiency of absorption as compared to subcutaneous delivery [1]	bioavailabilities, comparison of flow rates [2]	times to peak concentration, comparison of flow rates [2]	therapeutic effect, comparison of flow rates (dry powder inhaled, flow rates below 17 liters per minute vs above 17 liters per minute)	lung deposition, comparison of flow rates (human, in vivo)
semi-synthetic human insulin: semi-synthetic human insulin delivered by nebulizer to six diabetic children (Elliot et al)	20-25%	–	–	–	–
Low molecular weight heparin	–	higher bioavailabilities	lower times to peak concentration	–	–
Human calcitonin: Powders containing 26.7% human calcitonin (Ciba-Geigy), spray dried with mannitol and citrate buffer	–	higher bioavailabilities	lower times to peak concentration	–	–
Albuterol sulfate	–	–	–	increased therapeutic effect	higher lung deposition
